Calls of active or inactive are those of the source. The rule behind the calls is not given here.
Tested on: CCRIS mutagenicity, Ames/micronucleus/aberration tests
Test: CCRIS mutagenicity studies
[1] = Test System: AMES SALMONELLA TYPHIMURIUM, Strain/Indicator: TA1537, Metabolic Activation: NONE, Method: PREINCUBATION

CCOP(=S)(OCC)SCSC(C)(C)C
mutagenic call (Test System: AMES SALMONELLA TYPHIMURIUM, Strain/Indicator: TA98, Metabolic Activation: HAMSTER, LIVER, S-9, AROCLOR 1254 (10%), Method: PREINCUBATION): inactive; negative | mutagenic call (Test System: AMES SALMONELLA TYPHIMURIUM, Strain/Indicator: TA98, Metabolic Activation: NONE, Method: PREINCUBATION): inactive; negative | mutagenic call (Test System: AMES SALMONELLA TYPHIMURIUM, Strain/Indicator: TA98, Metabolic Activation: RAT, LIVER, S-9, AROCLOR 1254 (10%), Method: PREINCUBATION): inactive; negative | mutagenic call (Test System: AMES SALMONELLA TYPHIMURIUM, Strain/Indicator: TA100, Metabolic Activation: HAMSTER, LIVER, S-9, AROCLOR 1254 (10%), Method: PREINCUBATION): inactive; negative | mutagenic call (Test System: AMES SALMONELLA TYPHIMURIUM, Strain/Indicator: TA100, Metabolic Activation: NONE, Method: PREINCUBATION): inactive; negative | mutagenic call (Test System: AMES SALMONELLA TYPHIMURIUM, Strain/Indicator: TA100, Metabolic Activation: RAT, LIVER, S-9, AROCLOR 1254 (10%), Method: PREINCUBATION): inactive; negative | mutagenic call (Test System: AMES SALMONELLA TYPHIMURIUM, Strain/Indicator: TA1535, Metabolic Activation: HAMSTER, LIVER, S-9, AROCLOR 1254 (10%), Method: PREINCUBATION): inactive; negative | mutagenic call (Test System: AMES SALMONELLA TYPHIMURIUM, Strain/Indicator: TA1535, Metabolic Activation: NONE, Method: PREINCUBATION): inactive; negative | mutagenic call (Test System: AMES SALMONELLA TYPHIMURIUM, Strain/Indicator: TA1535, Metabolic Activation: RAT, LIVER, S-9, AROCLOR 1254 (10%), Method: PREINCUBATION): inactive; negative | mutagenic call (Test System: AMES SALMONELLA TYPHIMURIUM, Strain/Indicator: TA1537, Metabolic Activation: HAMSTER, LIVER, S-9, AROCLOR 1254 (10%), Method: PREINCUBATION): inactive; negative | mutagenic call [1]: inactive; negative | mutagenic call (Test System: AMES SALMONELLA TYPHIMURIUM, Strain/Indicator: TA1537, Metabolic Activation: RAT, LIVER, S-9, AROCLOR 1254 (10%), Method: PREINCUBATION): inactive; negative

C=CCOC(=O)CCCCC
mutagenic call (Test System: AMES SALMONELLA TYPHIMURIUM, Strain/Indicator: TA97, Metabolic Activation: NONE, Method: PREINCUBATION): inactive; negative | mutagenic call (Test System: AMES SALMONELLA TYPHIMURIUM, Strain/Indicator: TA97, Metabolic Activation: RAT, LIVER, S-9, AROCLOR 1254, Method: PREINCUBATION): inactive; negative | mutagenic call (Test System: AMES SALMONELLA TYPHIMURIUM, Strain/Indicator: TA102, Metabolic Activation: NONE, Method: PREINCUBATION): inactive; negative | mutagenic call (Test System: AMES SALMONELLA TYPHIMURIUM, Strain/Indicator: TA102, Metabolic Activation: RAT, LIVER, S-9, AROCLOR 1254, Method: PREINCUBATION): inactive; negative

CC(C)CCC[C@@H](C)[C@H]1CC[C@H]2[C@@H]3C=CC4(OO)C[C@@H](O)CC[C@]4(C)[C@H]3CC[C@]12C (some centres undefined)
mutagenic call [1]: active; positive

Nc1cc(C(F)(F)F)ccc1Cl
mutagenic call (Test System: AMES SALMONELLA TYPHIMURIUM, Strain/Indicator: TA98, Metabolic Activation: NONE, Method: STANDARD PLATE): inactive; negative | mutagenic call (Test System: AMES SALMONELLA TYPHIMURIUM, Strain/Indicator: TA98, Metabolic Activation: RAT, LIVER, S-9, AROCLOR 1254, Method: STANDARD PLATE): inactive; negative | mutagenic call (Test System: AMES SALMONELLA TYPHIMURIUM, Strain/Indicator: TA100, Metabolic Activation: NONE, Method: STANDARD PLATE): inactive; negative | mutagenic call (Test System: AMES SALMONELLA TYPHIMURIUM, Strain/Indicator: TA100, Metabolic Activation: RAT, LIVER, S-9, AROCLOR 1254, Method: STANDARD PLATE): inactive; negative | mutagenic call (Test System: AMES SALMONELLA TYPHIMURIUM, Strain/Indicator: TA1535, Metabolic Activation: NONE, Method: STANDARD PLATE): inactive; negative | mutagenic call (Test System: AMES SALMONELLA TYPHIMURIUM, Strain/Indicator: TA1535, Metabolic Activation: RAT, LIVER, S-9, AROCLOR 1254, Method: STANDARD PLATE): inactive; negative | mutagenic call (Test System: AMES SALMONELLA TYPHIMURIUM, Strain/Indicator: TA1537, Metabolic Activation: NONE, Method: STANDARD PLATE): inactive; negative | mutagenic call (Test System: AMES SALMONELLA TYPHIMURIUM, Strain/Indicator: TA1537, Metabolic Activation: RAT, LIVER, S-9, AROCLOR 1254, Method: STANDARD PLATE): inactive; negative | mutagenic call (Test System: AMES SALMONELLA TYPHIMURIUM, Strain/Indicator: TA1538, Metabolic Activation: NONE, Method: STANDARD PLATE): inactive; negative | mutagenic call (Test System: AMES SALMONELLA TYPHIMURIUM, Strain/Indicator: TA1538, Metabolic Activation: RAT, LIVER, S-9, AROCLOR 1254, Method: STANDARD PLATE): inactive; negative

C#CC
mutagenic call (End Point: IN VITRO CHROMOSOMAL ABERRATIONS, Test System: CHL CELLS, Metabolic Activation: RAT, LIVER, S-9, SODIUM PHENOBARBITAL AND 5,6-BENZOFLAVONE): inactive; negative; authors report equivocal results for structural changes at the highest | mutagenic call (Test System: AMES SALMONELLA TYPHIMURIUM, Strain/Indicator: TA98, Metabolic Activation: NONE, Method: GAS EXPOSURE): inactive; negative | mutagenic call (Test System: AMES SALMONELLA TYPHIMURIUM, Strain/Indicator: TA98, Metabolic Activation: RAT LIVER S-9, PHENOBARBITAL AND BETA-NAPHTHOFLAVONE (40%), Method: GAS EXPOSURE): inactive; negative | mutagenic call (Test System: AMES SALMONELLA TYPHIMURIUM, Strain/Indicator: TA98, Metabolic Activation: RAT, LIVER, S-9, PHENOBARBITAL AND 5,6-BENZOFLAVONE, Method: GAS EXPOSURE): inactive; negative | mutagenic call (Test System: AMES SALMONELLA TYPHIMURIUM, Strain/Indicator: TA100, Metabolic Activation: NONE, Method: GAS EXPOSURE): inactive; negative | mutagenic call (Test System: AMES SALMONELLA TYPHIMURIUM, Strain/Indicator: TA100, Metabolic Activation: RAT LIVER S-9, PHENOBARBITAL AND BETA-NAPHTHOFLAVONE (40%), Method: GAS EXPOSURE): inactive; negative | mutagenic call (Test System: AMES SALMONELLA TYPHIMURIUM, Strain/Indicator: TA100, Metabolic Activation: RAT, LIVER, S-9, PHENOBARBITAL AND 5,6-BENZOFLAVONE, Method: GAS EXPOSURE): inactive; negative | mutagenic call (Test System: AMES SALMONELLA TYPHIMURIUM, Strain/Indicator: TA1535, Metabolic Activation: NONE, Method: GAS EXPOSURE): inactive; negative | mutagenic call (Test System: AMES SALMONELLA TYPHIMURIUM, Strain/Indicator: TA1535, Metabolic Activation: RAT LIVER S-9, PHENOBARBITAL AND BETA-NAPHTHOFLAVONE (40%), Method: GAS EXPOSURE): inactive; negative | mutagenic call (Test System: AMES SALMONELLA TYPHIMURIUM, Strain/Indicator: TA1535, Metabolic Activation: RAT, LIVER, S-9, PHENOBARBITAL AND 5,6-BENZOFLAVONE, Method: GAS EXPOSURE): inactive; negative | mutagenic call (Test System: AMES SALMONELLA TYPHIMURIUM, Strain/Indicator: TA1537, Metabolic Activation: NONE, Method: GAS EXPOSURE): inactive; negative | mutagenic call (Test System: AMES SALMONELLA TYPHIMURIUM, Strain/Indicator: TA1537, Metabolic Activation: RAT LIVER S-9, PHENOBARBITAL AND BETA-NAPHTHOFLAVONE (40%), Method: GAS EXPOSURE): inactive; negative | mutagenic call (Test System: AMES SALMONELLA TYPHIMURIUM, Strain/Indicator: TA1537, Metabolic Activation: RAT, LIVER, S-9, PHENOBARBITAL AND 5,6-BENZOFLAVONE, Method: GAS EXPOSURE): inactive; negative | mutagenic call (Test System: E. COLI, Strain/Indicator: WP2 UVRA, Metabolic Activation: NONE, Method: GAS EXPOSURE): active; positive | mutagenic call (Test System: E. COLI, Strain/Indicator: WP2 UVRA, Metabolic Activation: RAT, LIVER, S-9, PHENOBARBITAL AND 5,6-BENZOFLAVONE, Method: GAS EXPOSURE): active; positive | mutagenic call (Test System: E.COLI, Strain/Indicator: WP2UVRA, Metabolic Activation: NONE, Method: GAS EXPOSURE): active; positive | mutagenic call (Test System: E.COLI, Strain/Indicator: WP2UVRA, Metabolic Activation: RAT LIVER S-9, PHENOBARBITAL AND BETA-NAPHTHOFLAVONE (40%), Method: GAS EXPOSURE): active; positive

Source: PubChem BioAssay AID1259407 (Chemical Carcinogenesis Research Information System (CCRIS), 2018)
